Source: PMC5036048, “Rational improvement of gp41-targeting HIV-1 fusion inhibitors: an innovatively designed Ile-Asp-Leu tail with alternative conformations” (Scientific Reports, 2016)
Ends that are not written are not given here.

Tests used:
CRF02_AG clone 242 = type: cell-based, HIV-1; conditions: subtype AG, R5, Tier 1; triplicate, repeated twice, mean ± SD; read-out: IC50 (nM) against CRF02_AG clone 242
Description: (§1) Table 1 Inhibitory activities of CP, CP-IDL and T20 against HIV-1 pseudovirus. | column: IC50 (nM) of / CP; IC50 (nM) of / CP-IDL; IC50 (nM) of / T20

BG505.W6M.ENV.C2 = type: cell-based, HIV-1; conditions: subtype A; triplicate, repeated twice, mean ± SD; read-out: IC50 (nM) against BG505.W6M.ENV.C2
Description: as §1

SF162.LS = type: cell-based, HIV-1; conditions: subtype B, R5, Tier 1; triplicate, repeated twice, mean ± SD; read-out: IC50 (nM) against SF162.LS
Description: as §1

MJ412.W0M.ENV.B1 = type: cell-based, HIV-1; conditions: subtype C; triplicate, repeated twice, mean ± SD; read-out: IC50 (nM) against MJ412.W0M.ENV.B1
Description: as §1

BJ412.W6M.ENV.S3 = type: cell-based, HIV-1; conditions: subtype C; triplicate, repeated twice, mean ± SD; read-out: IC50 (nM) against BJ412.W6M.ENV.S3
Description: as §1

CRF02_AG clone 33 = type: cell-based, HIV-1; conditions: subtype AG, R5, Tier 3; triplicate, repeated twice, mean ± SD; read-out: IC50 (nM) against CRF02_AG clone 33
Description: as §1

CRF02_AG/A1 clone 280 = type: cell-based, HIV-1; conditions: subtype AG/A1, R5, Tier 2; triplicate, repeated twice, mean ± SD; read-out: IC50 (nM) against CRF02_AG/A1 clone 280
Description: as §1

ZM109F.PB4 = type: cell-based, HIV-1; conditions: subtype C, R5; triplicate, repeated twice, mean ± SD; read-out: IC50 (nM) against ZM109F.PB4
Description: as §1

B1206.W6P.ENV.A1 = type: cell-based, HIV-1; conditions: subtype A; triplicate, repeated twice, mean ± SD; read-out: IC50 (nM) against B1206.W6P.ENV.A1
Description: as §1

pCH119 env = type: cell-based, HIV-1; conditions: subtype BC, R5, Tier 2; triplicate, repeated twice, mean ± SD; read-out: IC50 (nM) against pCH119 env
Description: as §1

CRF02_AG clone 278 = type: cell-based, HIV-1; conditions: subtype AG, R5, Tier 3; triplicate, repeated twice, mean ± SD; read-out: IC50 (nM) against CRF02_AG clone 278
Description: as §1

[1] = tested on: T2635-resistant strain Q66R, N126K; type: cell-based, HIV-1; conditions: triplicate, repeated twice, mean ± SD, read-out: IC50 (nM) against Q66R, N126K
Description: (§2) Table 2 Inhibitory activities of CP, CP-IDL and T20 against T2635 or T20 resistant strains. | column: IC50 (nM) of / CP; IC50 (nM) of / CP-IDL; IC50 (nM) of / T20

[2] = tested on: WT (T20-resistant strain panel); type: cell-based, HIV-1; conditions: triplicate, repeated twice, mean ± SD, read-out: IC50 (nM) against WT
Description: as §2

[3] = tested on: T2635-resistant strain N126K; type: cell-based, HIV-1; conditions: triplicate, repeated twice, mean ± SD, read-out: IC50 (nM) against N126K
Description: as §2

[4] = tested on: T20-resistant strain N42T, N43K; type: cell-based, HIV-1; conditions: triplicate, repeated twice, mean ± SD, read-out: IC50 (nM) against N42T, N43K
Description: as §2

[5] = tested on: T2635-resistant strain N113E; type: cell-based, HIV-1; conditions: triplicate, repeated twice, mean ± SD, read-out: IC50 (nM) against N113E
Description: as §2

[6] = tested on: WT (T2635-resistant strain panel); type: cell-based, HIV-1; conditions: triplicate, repeated twice, mean ± SD, read-out: IC50 (nM) against WT
Description: as §2

[7] = tested on: T2635-resistant strain K154Q; type: cell-based, HIV-1; conditions: triplicate, repeated twice, mean ± SD, read-out: IC50 (nM) against K154Q
Description: as §2

[8] = tested on: HIV-1 92UG024 (subtype D, X4); type: cell-based
Method: (§3) Inhibition activities of peptides on infection by HIV-1 clinical strains were determined as previously described. For inhibition of HIV-1 92TH009 (subtype A/E, R5) and 92UG024 (subtype D, X4) infection,100 TCID50 of the virus was added to 1 × 10^5/ml M7 cells in RPMI 1640 medium containing 10% FBS in the presence or absence of the test peptide overnight. Then, the culture supernatants were changed to fresh media. On the fourth day post-infection, culture supernatants were collected for detection of p24 antigen by ELISA. The percent inhibition of p24 production was calculated using the computer program Calcusyn.

[9] = tested on: HIV-1 92TH009 (subtype A/E, R5); assay: Inhibition of HIV-1 clinical strain infection of M7 cells, p24 antigen ELISA; type: cell-based
Method: as §3

| Sequence | IC50 (CRF02_AG clone 242) | IC50 (BG505.W6M.ENV.C2) | IC50 (SF162.LS) | IC50 (MJ412.W0M.ENV.B1) | IC50 (BJ412.W6M.ENV.S3) | IC50 (CRF02_AG clone 33) | IC50 (CRF02_AG/A1 clone 280) | IC50 (ZM109F.PB4) | IC50 (B1206.W6P.ENV.A1) | IC50 (pCH119 env) | IC50 (CRF02_AG clone 278) | IC50 [1] | IC50 [2] | IC50 [3] | IC50 [4] | IC50 [5] | IC50 [6] | IC50 [7] | also measured |
| --- | --- | --- | --- | --- | --- | --- | --- | --- | --- | --- | --- | --- | --- | --- | --- | --- | --- | --- | --- |
| WEEWDKKIEEYTKKIEELIKKSQNQQ [CP] | 61.2 ± 13 nM | 26.5 ± 8.6 nM | 78.8 ± 11 nM | 46 ± 3.2 nM | 51.9 ± 12 nM | 111 ± 4.8 nM | 213 ± 14 nM | 63.4 ± 4.6 nM | > 2000 nM | 42.3 ± 2.9 nM | 44.4 ± 13 nM | > 500 nM | 181 ± 16 nM | 462 ± 44 nM | > 500 nM | 297 ± 22 nM | 195 ± 12 nM | > 500 nM | IC50 ([8]; M7 cells, 100 TCID50 virus, peptide overnight, p24 ELISA on day 4 post-infection, read-out: IC50, inhibition of HIV-1 92UG024 infection): 208 nM; IC50 ([9]; M7 cells, 100 TCID50 virus, peptide overnight, p24 ELISA on day 4 post-infection): 281 nM |
| WEEWDKKIEEYTKKIEELIKKSQNQQIDL [CP-IDL] | 6.24 ± 3.7 nM | 8.61 ± 2.8 nM | 1.51 ± 0.4 nM | 2.24 ± 1.3 nM | 1.21 ± 0.1 nM | 2.82 ± 0.5 nM | 5.62 ± 1.2 nM | 2.93 ± 1.2 nM | 74.5 ± 12 nM | 5.79 ± 1.1 nM | 8.59 ± 2.4 nM | 302 ± 34 nM | 8.67 ± 1.6 nM | 46.4 ± 16 nM | 382 ± 82 nM | 7.99 ± 3.5 nM | 10.8 ± 1.2 nM | 9.79 ± 2.9 nM | Increase of potency over CP ([8]; 92UG024, ratio of IC50 to CP): 55 fold; Activity stronger than that of T20 ([8]; 92UG024, ratio of IC50 to T20): 12 fold; Activity stronger than that of T20 ([9]; 92TH009): 24 fold; Increase of potency over CP ([9]; 92TH009, ratio of IC50 to CP): 109 fold |
